Assay [1] has as its target Bromodomain-containing protein 4 (Homo sapiens, UniProt O60885). Kind of assay: Displacement of FAM-labeled ZBA248 from BRD4 BD2 (333 to 460 amino acid residues) (unknown origin) expressed in Rosetta2 DE3 cells after 30 mins by fluorescence polarization assay.
In assay [2] the target is T1, Bromodomain-containing protein 2 (Homo sapiens, UniProt P25440). Kind of assay: Binding affinity to biotinylated BRD2 BD2 (349 to 460 amino acid residues) (unknown origin) expressed in Rosetta2 DE3 cells by bio-layer interferometry method.
T1 sequence (P25440 whole entry, the tested form may be a part): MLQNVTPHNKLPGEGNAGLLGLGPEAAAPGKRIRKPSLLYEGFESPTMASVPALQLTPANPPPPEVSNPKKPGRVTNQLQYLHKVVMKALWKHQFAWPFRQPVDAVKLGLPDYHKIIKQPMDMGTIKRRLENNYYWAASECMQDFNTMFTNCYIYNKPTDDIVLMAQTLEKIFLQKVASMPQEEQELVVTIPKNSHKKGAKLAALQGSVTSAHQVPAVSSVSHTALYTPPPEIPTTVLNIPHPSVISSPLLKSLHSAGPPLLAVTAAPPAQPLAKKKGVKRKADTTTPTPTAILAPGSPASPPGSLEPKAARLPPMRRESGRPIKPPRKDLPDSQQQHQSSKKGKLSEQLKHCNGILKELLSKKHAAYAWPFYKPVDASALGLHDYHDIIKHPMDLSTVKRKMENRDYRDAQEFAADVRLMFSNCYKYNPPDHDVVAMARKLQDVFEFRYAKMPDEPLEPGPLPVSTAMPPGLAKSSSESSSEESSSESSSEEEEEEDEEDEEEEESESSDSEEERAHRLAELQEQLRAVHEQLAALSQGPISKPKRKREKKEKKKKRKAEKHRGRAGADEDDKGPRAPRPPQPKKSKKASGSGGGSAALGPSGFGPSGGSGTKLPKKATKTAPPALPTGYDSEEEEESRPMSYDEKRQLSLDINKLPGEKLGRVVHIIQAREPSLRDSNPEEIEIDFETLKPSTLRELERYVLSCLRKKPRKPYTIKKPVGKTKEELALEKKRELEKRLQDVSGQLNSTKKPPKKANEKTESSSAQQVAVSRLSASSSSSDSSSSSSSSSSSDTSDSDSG
In assay [3] the target is T1, Bromodomain-containing protein 2. Kind of assay: Binding affinity to biotinylated BRD2 BD1 (72 to 205 amino acid residues) (unknown origin) expressed in Rosetta2 DE3 cells by bio-layer interferometry method. (BLI is a label-free optical method that tracks binding on a fibre tip over time.)

The term IC50 denotes the concentration needed to halve the response being measured. Low readings indicate greater potency, high ones weaker potency. For orientation: Ki means a measure of affinity in units of concentration, obtained from inhibition or displacement. Read a low Ki as a stronger hold on the target. Usually Kd stands for the constant that tells how readily two partners part at equilibrium.

`COc1cc2c(cc1-c1c(C)noc1C)[nH]c1ccnc(-c3c(C4CC4)n[nH]c3C)c12`: the IC50 in assay [1] was 36.5 nM. For the same molecule, in assay [1], the Ki stood at 12.2 nM. Further, the Kd in assay [2] was 29.6 nM; in assay [3], 48.1 nM.

(Values after ChEMBL document CHEMBL3580597 (J Med Chem, 2015).)
